US20010029261A1, “Small molecule sulfonamide hair growth compositions and uses” (GUILFORD PHARMACEUTICALS INC., priority 1997, published 2001)

Legend:
FKBP12 = FKBP12 (Homo sapiens, UniProt P62942); experiment: Ki test procedure: inhibition of peptidyl-prolyl isomerase (rotamase) activity, chymotrypsin-coupled assay; type: biochemical; conditions: apparent Ki
From the text: The inhibition of the prolyl peptidyl cis-trans isomerase activity of FKBP may be measured as an indicator of this affinity.
Inhibition of the peptidyl-prolyl isomerase (rotamase) activity of the compounds used in the inventive methods and pharmaceutical compositions can be evaluated by known methods described in the literature (Harding et al., Nature, 1989, 341:758-760; Holt et al. J. Am. Chem. Soc., 115:9923-9938). These values are obtained as apparent Ki's and are presented for representative compounds in TABLE II.
The cis-trans isomerization of an alanine-proline bond in a model substrate, N-succinyl-Ala-Ala-Pro-Phe-p-nitroanilide, is monitored spectrophotometrically in a chymotrypsin-coupled assay, which releases para-nitroanilide from the trans form of the substrate. The inhibition of this reaction caused by the addition of different concentrations of inhibitor is determnined, and the data is analyzed as a change in first-order rate constant as a function of inhibitor concentration to yield the apparent Ki values.
In a plastic cuvette are added […] of ice cold assay buffer (25 mM HEPES, pH 7.8, 100 mM NaCl), 10 mL of FKBP (2.5 mM in 10 mM Tris-Cl pH 7.5, 100 mM NaCl, 1 mM dithiothreitol), […] of chymotrypsin (50 mg/ml in 1 mM HCl) and […] of test compound at various concentrations in dimethyl sulfoxide. The reaction is initiated by the addition of 5 mL of substrate (succinyl-Ala-Phe-Pro-Phe-para-nitroanilide, 5 mg/mL in 2.35 mM LiCl in trifluoroethanol).
The absorbance at 390 nm versus time is monitored for 90 seconds using a spectrophotometer and the rate constants are determined from the absorbance versus time data files.

hair growth = conditions: topical, but not oral, application; cited from earlier work

FKBP12, sequence (P62942 whole entry, species assumed): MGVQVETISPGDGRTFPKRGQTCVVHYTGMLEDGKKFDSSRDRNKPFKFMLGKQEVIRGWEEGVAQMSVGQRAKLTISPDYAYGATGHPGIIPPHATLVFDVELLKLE

| SMILES | Ki (FKBP12) [nM] | hair growth stimulation (hair growth) |
| --- | --- | --- |
| O=C(OCCCCc1ccccc1)C1CCCCN1S(=O)(=O)Cc1ccccc1 (racemic) [Compound 1, 4-phenyl-1-butyl-1-(benzylsulfonyl)-(2R,S)-2-pipecolinate] | 72 |  |
| O=C(OC(CCc1ccccc1)CCc1ccccc1)C1CCCCN1S(=O)(=O)Cc1ccccc1 (stereo not drawn) [Compound 2, 1,5-diphenyl-3-pentyl-N-(α-toluene-sulfonyl)pipecolate] | 34 |  |
| O=C(OCCCc1cccnc1)[C@@H]1CCCN1S(=O)(=O)Cc1ccccc1 [Compound 4, 3-(3-pyridyl)-1-propyl-(2S)-N-(α-toluenesulfonyl)pyrrolidine-2-carboxylate] | 332 |  |
| O=C(OCCCCc1ccccc1)C1CCCCN1S(=O)(=O)Cc1ccccc1 (stereo not drawn) [Compound 7, 4-phenyl-1-butyl-N-(α-toluene-sulfonyl)pipecolate] | 127 |  |
| C=CC[C@@H]1/C=C(\C)C[C@H](C)C[C@H](OC)[C@H]2O[C@@](O)(C(=O)C(=O)N3CCCC[C@H]3C(=O)O[C@H](/C(C)=C/[C@@H]3CC[C@@H](O)[C@H](OC)C3)[C@H](C)[C@@H](O)CC1=O)[C@H](C)C[C@@H]2OC [FK506] |  | stimulates hair growth in a dose-dependent manner |
